Patent US10004770B2, “Production and use of bacterial histamine” (BioGaia AB, priority 2011, dated 2018)
“Also recorded” adds a separate entry of the source.

Tests used:
[1] = tested on: TNF production from TLR2-activated THP-1 cells; assay: TNF inhibition bioassay and TNF ELISA; format: cell-based, human; details: for block of TNF-inhibition by histamine: antagonist added before histamine 10^-5 M, ranitidine, cimetidine 10^-4-10^-6 M, indomethacin 10^-5-10^-6 M; for TNF production (TNF inhibition): THP-1 cells stimulated with 100 ng/mL Pam3Cys-SKKKK, 3.5 h, samples 5% v/v, histamine 10^-5 M, 6475 grown in glucose media (LDMIIIG)
Method: In vitro experiments were performed with THP-1 cells (human monocytoid cell line, ATCC, Manassas, Va.) maintained in RPMI (ATCC) and heat-inactivated fetal bovine serum (Invitrogen, Carlsbad, Calif.) at 37° C., 5% CO2. MEK1/2, phospho-MEK1/2, ERK1/2, and phospho-ERK1/2 antibodies and MEK inhibitor U0126 were received from Cell Signaling Technology (Danvers, Mass.), and the β-Actin antibody was received from Abcam (Cambridge, Mass.). All other reagents were received from Sigma (St. Louis, Mo.) unless otherwise stated.
Bacterial supernatants (10 mL) from a 24 h LDMIII culture were filter-sterilized using PVDF membrane filters (0.22 μm pore size, Millipore) and size fractionated as described above. One milliliter of the <3 kDa filtrate was speed vacuum dried and resuspended in RPMI media. These processed supernatant samples are termed conditioned media. All supernatants were normalized by volume to an OD600=1.0. Lyophilized fractions from the HILIC-HPLC separation were resuspended in 400 μL 10 mg/mL ammonium bicarbonate, speed vacuum dried, and resuspended in 400 μL RPMI media. Conditioned media and cell pellet wash fractions were tested for their ability to modulate TNF production in monocytoid cells. In brief, THP-1 cells (approximately 5×10^4 cells) were stimulated to produce TNF by the addition of 100 ng/mL Pam3Cys-SKKKK×3 HCl (EMC Microcollections, Tuebingen, Germany) as previously described. Inhibitors—H2 receptor antagonists, ranitidine and cimetidine (10^−4-10^−6 M), […], indomethacin (10^−5-10^−6 M), MEK inhibitor, U0126 (10 μM), and PKA inhibitor, H89 (N-[2-(p-bromocinnamylamino)ethyl]-5-isoquinolinesulfonamide dihydrochloride) (10^−5 M)—were added to the THP-1 cells followed by L. reuteri conditioned media or cell pellet wash fractions (5% v/v), histamine (10^−5 M), or dibutyryl cAMP (10^−3-10^−7 M). Plates were incubated at 37° C. and 5% CO2 for 3.5 h. THP-1 cells were pelleted (3000× g, 5 min, 4° C.), and quantitative ELISAs were used to determine TNF quantities in THP-1 cell supernatants according to the manufacturer's instructions (R&D Systems, Minneapolis, Minn.).

MEK1/2 = MEK1/2 activation by Western blot; format: cell-based, human; details: activated THP-1 cells, compared to media control
Method: (§1) THP-1 cells were lysed in ice-cold lysis buffer consisting of 50 mM Tris, pH 7.4, 250 mM NaCl, 5 mM EDTA, 50 mM NaF, 1 mM Na3VO4, 1% v/v Nonidet P40, 0.2% v/v NaN3, and protease and phosphatase inhibitors. Lysates were incubated on ice for 30 min, vortexed every 10 min, and cleared by centrifugation at 13,000×g for 10 min at 4° C. Protein concentrations were measured using the Quant-iT™ Protein Assay kit (Invitrogen) and a Qubit fluorometer according to the manufacturer's instructions. Equal amounts of proteins were loaded onto electrophoresis gels.
(§2) Analysis of ERK1/2 activation was performed using specific phospho-ERK1/2 antibodies. Cell extracts were loaded on a 10% SDS-polyacrylamide gel and transferred to polyvinylidene difluoride membranes (Bio-Rad, Hercules, Calif.). Membranes were blocked overnight at 4° C. in blocking buffer (Li-Cor Biosciences, Lincoln, Nebr.). After several washes, membranes were probed with ERK1/2, phospho-ERK1/2 or β-Actin specific antibodies diluted in blocking buffer (Li-Cor) for 1 h at room temperature. After washes, membranes were incubated with the appropriate horseradish peroxidase-conjugated secondary antibody for 1 h at room temperature, and blots were then developed using a chemiluminescent detection. Analysis of MEK1/2 activation was performed as described above except primary antibody incubation was overnight at 4° C.

ERK1/2 = ERK1/2 activation by Western blot; format: cell-based, human; details: activated THP-1 cells, compared to media control
Method: as §1, §2

H2 receptor = biological target: T1, H2 receptor (Mus musculus, UniProt P97292); details: endotoxin shock (LPS challenge) and hepatitis (LPS plus galactosamine challenge); cited from earlier work
T1 construct: host or cells: living mice (endogenous receptor)
T1 sequence (P97292 whole entry): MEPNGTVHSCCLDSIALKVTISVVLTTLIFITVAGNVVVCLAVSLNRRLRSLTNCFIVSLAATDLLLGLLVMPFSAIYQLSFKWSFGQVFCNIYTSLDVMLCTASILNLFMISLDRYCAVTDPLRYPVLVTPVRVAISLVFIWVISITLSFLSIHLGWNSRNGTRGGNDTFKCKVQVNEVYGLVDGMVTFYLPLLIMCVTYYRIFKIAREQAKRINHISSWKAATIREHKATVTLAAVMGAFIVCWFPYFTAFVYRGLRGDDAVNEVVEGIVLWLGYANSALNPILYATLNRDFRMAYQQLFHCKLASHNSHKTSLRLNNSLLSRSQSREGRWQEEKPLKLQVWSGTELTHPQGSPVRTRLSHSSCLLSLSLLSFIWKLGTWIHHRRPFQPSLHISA

[2] = tested on: intracellular cAMP in THP-1 cells (H2 receptor signaling); assay: Intracellular cAMP in TLR2-stimulated THP-1 cells; format: cell-based, human; details: THP-1 cells stimulated with TLR2 agonist
Method: The H2 receptor is a G protein linked receptor that can activate adenylate cyclase and increase intracellular cAMP. TNF can be inhibited at the level of transcription by cAMP and cAMP analogs. THP-1 cells were stimulated with a TLR2 agonist in the presence of a medium control, 6475 supernatant or histamine with or without an H2 receptor antagonist and intracellular levels of cAMP were measured. […] A synthetic analog of cAMP, dibutyryl cAMP (dcAMP), was added to TLR2-stimulated THP-1 cells and the effect on TNF production was monitored.

[3] = tested on: peripheral blood mononuclear cells; details: cited from earlier work
TNFR1 [4] = details: cultured human endothelial cells; cited from earlier work
TNFR1 [5] = details: injection into human skin engrafted on immunodeficient mice; cited from earlier work
[6] = tested on: LPS-stimulated human monocytes and macrophages; details: cited from earlier work
LPS-induced liver injury = details: mouse; cited from earlier work
patients with IBS = details: cited from earlier work

## Cl.Cl.O=S(=O)(NCCNCC=Cc1ccc(Br)cc1)c1cccc2cnccc12 [H89, N-[2-(p-bromocinnamylamino)ethyl]-5-isoquinolinesulfonamide dihydrochloride]
[1]; H89 10^-5 M in presence of 6475 supernatant, fraction B3, histamine or dcAMP
  block of TNF inhibition by PKA inhibitor: partially blocked TNF inhibition

## N#CC(=C(/N)Sc1ccccc1N)/C(C#N)=C(\N)Sc1ccccc1N [U0126]
[1]; U0126 treatment for 30 min prior to TLR2 agonist stimulation
  TNF production: sufficient to prevent TNF production
MEK1/2
  phosphorylation (activation) of MEK1/2: blocks phosphorylation; also recorded: suppressed activation of MEK1/2
ERK1/2
  phosphorylation (activation) of ERK1/2: blocks phosphorylation; also recorded: suppressed activation of ERK1/2

## CN/C(=N/CCSCc1nc[nH]c1C)NC#N [cimetidine]
[1]
  block of TNF-inhibition by histamine: could block TNF-inhibition by histamine in a concentration dependent manner

## CCCC(=O)Nc1ncnc2c1ncn2[C@@H]1O[C@@H]2COP(=O)(O)O[C@H]2[C@H]1OC(=O)CCC [dcAMP, dibutyryl cAMP]
[1]; dcAMP 10^-5-10^-3 M added to TLR2-stimulated THP-1 cells
  TNF production: sufficient to inhibit TNF production

## CN(C)CCCSC(=N)N [dimaprit]
H2 receptor
  plasma TNF levels: reduced plasma TNF levels

## NCCc1c[nH]cn1 [histamine]
[1]
  TNF production (TNF inhibition): concentration dependent; also recorded: significantly inhibited TNF production
[1]; listed as Histamine
  TNF production (TNF inhibition): significantly inhibit TNF production
[2]
  intracellular cAMP: increase in cAMP; also recorded: increased intracellular cAMP
MEK1/2
  phosphorylation (activation) of MEK1/2: blocks phosphorylation; also recorded: suppressed activation of MEK1/2
ERK1/2
  phosphorylation (activation) of ERK1/2: blocks phosphorylation; also recorded: suppressed activation of ERK1/2
[3]
  LPS-induced synthesis of TNF-α: suppressed
TNFR1 [4]
  TNFR1 surface level, shedding and mobilization: transient loss of surface TNFR1, increased TNFR1 shedding, and mobilization of TNFR1 molecules from the Golgi
TNFR1 [5]
  TNFR1 shedding and TNF-mediated induction of endothelial adhesion molecules: caused shedding of TNFR1 and diminished TNF-mediated induction of endothelial adhesion molecules
[6]; LPS-stimulated human monocytes and macrophages
  production of pro-inflammatory cytokines IL-1, IL-12 and TNF: can inhibit production
[6]; via the H2 receptor
  production of anti-inflammatory cytokine IL-10: can stimulate production
LPS-induced liver injury
  protection in LPS-induced liver injury: protective

## COc1ccc2c(c1)c(CC(=O)O)c(C)n2C(=O)c1ccc(Cl)cc1 [indomethacin]
[1]
  block of TNF-inhibition by histamine: no effect

## CN1CCC(=C2c3ccccc3CC(=O)c3sccc32)CC1 [ketotifen]
Patients with IBS; patients with IBS
  IBS symptoms: decreased IBS symptoms
  pain threshold: increased pain threshold
Patients with IBS; rectal biopsy tissue
  number or activity of mast cells (histamine and tryptase release): no change
